# Results from US20250114460A1, “NOVEL PLK1 DEGRADATION INDUCING COMPOUND” (UPPTHERA, INC., priority 2021, published 2025).
# Target: T1, PLK1 (Homo sapiens, UniProt P53350)
# T1 construct: endogenous in cells; host or cells: HeLa LgBit (Plk1-HiBit KI): HeLa stably expressing LgBit, with a CRISPR/Cas9 knock-in of HiBit at the endogenous PLK1 locus
# Assay: Luciferase assay for PLK1 in HeLa LgBit (Plk1-HiBit KI) cell line
# Type: cell-based
# Conditions: 300 nM compound, luminescence after 9 hours
# Description: 2. Luciferase Assay for PLK1
# (1) Preparation and Culture of HeLa LgBit (Plk1-HiBit KI) Cell Line
# A HeLa cell line in which the LgBit vector was transfected and expressed stably was prepared. Then, after constructing gRNA and donor to express the HiBit amino acid sequence behind the C-terminal of the Plk1 gene, which was inherent in the cell, it was inserted into the cell together with a vector capable of expressing CRISPR/Cas9. Only the cells in which the insertion was completed and knock-in had progressed were selected, sub-cultured and used.
# (2) Treatment of Compounds of the Present Invention and Method of Luciferase Assay
# In the case of HeLa LgBit (Plk1-HiBit KI), the compounds were treated after being released after thymidine block, and the process was as follows. Thymidine (Sigma-Aldrich Cat. No. T9250-5G) was completely dissolved in DW and used in the experiment. For thymidine block, the products were treated with 2 mM of thymidine and then incubated for 24 hours. For release and chemical treatment, the medium was suctioned and washed with 1×PBS. TrypLE™ was added and incubated in 37° C. CO2 incubator for 5 min. Cells neutralized by adding complete media were counted through a counter. For each well of a 96-well culture plate (SPL), 3.3×10^4 cells and a total medium volume of 150 μL were seeded and incubated in a CO2 incubator.
# Each cell line was incubated in a CO2 incubator for 18 hours, and Endurazine was added to each well to make up 4% of the total volume. After adding the compound of the present invention in a 96-well white plate (SPL) to a concentration of 300 nM, the wavelength of the plate reader (BMG Labtech, CLARIOstar Plus) was set to […], and then the luminescence was tracked in real time.
# In Table 2, Activity represents the ratio of the luminescense value of each Exemplary Compound treatment group to DMSO treatment group (+++: <0.3, ++<0.6, +<0.7).
# T1 sequence (P53350 whole entry): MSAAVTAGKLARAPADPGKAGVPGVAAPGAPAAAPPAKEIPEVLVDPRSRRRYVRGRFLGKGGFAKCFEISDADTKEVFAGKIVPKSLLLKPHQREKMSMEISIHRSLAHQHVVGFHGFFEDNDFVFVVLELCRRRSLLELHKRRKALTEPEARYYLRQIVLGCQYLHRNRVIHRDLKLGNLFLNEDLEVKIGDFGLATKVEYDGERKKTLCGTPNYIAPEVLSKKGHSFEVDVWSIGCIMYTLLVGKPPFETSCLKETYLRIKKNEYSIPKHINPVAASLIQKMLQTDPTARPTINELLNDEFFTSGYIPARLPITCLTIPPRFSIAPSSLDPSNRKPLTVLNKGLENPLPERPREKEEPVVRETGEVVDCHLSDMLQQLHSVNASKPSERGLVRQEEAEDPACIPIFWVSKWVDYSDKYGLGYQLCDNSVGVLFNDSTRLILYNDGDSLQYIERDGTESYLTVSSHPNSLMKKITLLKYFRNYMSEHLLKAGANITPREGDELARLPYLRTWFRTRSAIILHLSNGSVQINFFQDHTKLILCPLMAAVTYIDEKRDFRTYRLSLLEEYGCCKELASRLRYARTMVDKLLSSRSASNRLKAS
row,SMILES,Activity: ratio of the luminescense value of each Exemplary Compound treatment group to DMSO treatment group
1,"COc1cc(C(=O)NN2CCC(N3CC4(CCN(c5ccc6c(c5)C(=O)N(C5CCC(=O)NC5=O)C6=O)CC4)C3)CC2)ccc1Nc1ncc2c(n1)N(C(C)C)CC(F)(F)C(=O)N2C (centres unmarked) [Compound 214, 4-((7,7-difluoro-9-isopropyl-5-methyl-6-oxo-6,7,8,9-tetrahydro-5H-pyrimido[4,5-b][1,4]diazepin-2-yl)amino)-N-(4-(7-(2-(2,6-dioxopiperidin-3-yl)-1,3-dioxoisoindolin-5-yl)-2,7-diazaspiro[3.5]nonan-2-yl)piperidin-1-yl)-3-methoxybenzamide]",+ (+<0.7)
2,"COc1cc(C(=O)NC2CCN(Cc3ccc(COc4ccc5c(c4)CN([C@H]4CCC(=O)NC4=O)C5=O)cc3)CC2)ccc1Nc1ncc2c(n1)N(C1CCCC1)CC(F)(F)C(=O)N2C [Compound 22, (S)-4-((9-cyclopentyl-7,7-difluoro-5-methyl-6-oxo-6,7,8,9-tetrahydro-5H-pyrimido[4,5-b][1,4]diazepin-2-yl)amino)-N-(1-(4-(((2-(2,6-dioxopiperidin-3-yl)-1-oxoisoindolin-5-yl)oxy)methyl)benzyl)piperidin-4-yl)-3-methoxybenzamide]",+ (+<0.7)
3,"COc1cc(C(=O)NC2CC(N(C)CC3CCN(c4cccc5c4C(=O)N(C4CCC(=O)NC4=O)C5=O)CC3)C2)ccc1Nc1ncc2c(n1)N(C1CCCC1)CC(F)(F)C(=O)N2C (centres unmarked) [Compound 105, 4-((9-cyclopentyl-7,7-difluoro-5-methyl-6-oxo-6,7,8,9-tetrahydro-5H-pyrimido[4,5-b][1,4]diazepin-2-yl)amino)-N-(3-(((1-(2-(2,6-dioxopiperidin-3-yl)-1,3-dioxoisoindolin-4-yl)piperidin-4-yl)methyl)(methyl)amino)cyclobutyl)-3-methoxybenzamide]",++ (++<0.6)
4,"CN1C(=O)C(F)(F)CN(C2CCCC2)c2nc(Nc3ccc(C(=O)NC4CCN(C(=O)CCN5CCN(c6cccc7c6C(=O)N(C6CCC(=O)NC6=O)C7=O)CC5)CC4)cc3C(F)(F)F)ncc21 (centres unmarked) [Compound 75, 4-((9-cyclopentyl-7,7-difluoro-5-methyl-6-oxo-6,7,8,9-tetrahydro-5H-pyrimido[4,5-b][1,4]diazepin-2-yl)amino)-N-(1-(3-(4-(2-(2,6-dioxopiperidin-3-yl)-1,3-dioxoisoindolin-4-yl)piperazin-1-yl)propanoyl)piperidin-4-yl)-3-(trifluoromethyl)benzamide]",++ (++<0.6)
5,"COc1cc(C(=O)NC2CCCN(CC3CCN(c4cccc5c4C(=O)N(C4CCC(=O)NC4=O)C5=O)CC3)C2)ccc1Nc1ncc2c(n1)N(C1CCCC1)CC(F)(F)C(=O)N2C (centres unmarked) [Compound 126, 4-((9-cyclopentyl-7,7-difluoro-5-methyl-6-oxo-6,7,8,9-tetrahydro-5H-pyrimido[4,5-b][1,4]diazepin-2-yl)amino)-N-(1-((1-(2-(2,6-dioxopiperidin-3-yl)-1,3-dioxoisoindolin-4-yl)piperidin-4-yl)methyl)piperidin-3-yl)-3-methoxybenzamide]",+ (+<0.7)

# Now from value to compound:
row,Activity: ratio of the luminescense value of each Exemplary Compound treatment group to DMSO treatment group,SMILES
1,++ (++<0.6),"COc1cc(C(=O)NC2CCN(C(=O)CCN3CCN(c4cccc5c4C(=O)N(C4CCC(=O)NC4=O)C5=O)CC3)CC2)ccc1Nc1ncc2c(n1)N(C1CC1)CC(F)(F)C(=O)N2C (centres unmarked) [Compound 67, 4-((9-cyclopropyl-7,7-difluoro-5-methyl-6-oxo-6,7,8,9-tetrahydro-5H-pyrimido[4,5-b][1,4]diazepin-2-yl)amino)-N-(1-(3-(4-(2-(2,6-dioxopiperidin-3-yl)-1,3-dioxoisoindolin-4-yl)piperazin-1-yl)propanoyl)piperidin-4-yl)-3-methoxybenzamide]"
2,+ (+<0.7),"COc1cc(C(=O)NCCOCCNc2cccc3c2C(=O)N(C2CCC(=O)NC2=O)C3=O)c(N2CCN(C)CC2)cc1Nc1ncc2c(n1)N(C1CCCC1)CC(F)(F)C(=O)N2C (centres unmarked) [Compound 221, 4-((9-cyclopentyl-7,7-difluoro-5-methyl-6-oxo-6,7,8,9-tetrahydro-5H-pyrimido[4,5-b][1,4]diazepin-2-yl)amino)-N-(2-(2-((2-(2,6-dioxopiperidin-3-yl)-1,3-dioxoisoindolin-4-yl)amino)ethoxy)ethyl)-5-methoxy-2-(4-methylpiperazin-1-yl)benzamide]"
3,++ (++<0.6),"COc1cc(C(=O)N2CCC(N3CCN(CCOCCNc4ccc5c(c4)C(=O)N(C4CCC(=O)NC4=O)C5=O)CC3)CC2)c(F)cc1Nc1ncc2c(n1)N(C1CCCC1)CC(F)(F)C(=O)N2C (centres unmarked) [Compound 191, 5-((2-(2-(4-(1-(4-((9-cyclopentyl-7,7-difluoro-5-methyl-6-oxo-6,7,8,9-tetrahydro-5H-pyrimido[4,5-b][1,4]diazepin-2-yl)amino)-2-fluoro-5-methoxybenzoyl)piperidin-4-yl)piperazin-1-yl)ethoxy)ethyl)amino)-2-(2,6-dioxopiperidin-3-yl)isoindoline-1,3-dione]"
4,++ (++<0.6),"COc1cc(C(=O)NCCOCCOCCOCCNc2cccc3c2C(=O)N(C2CCC(=O)NC2=O)C3=O)c(N2CCN(C)CC2)cc1Nc1ncc2c(n1)N(C1CCCC1)CC(F)(F)C(=O)N2C (centres unmarked) [Compound 223, 4-((9-cyclopentyl-7,7-difluoro-5-methyl-6-oxo-6,7,8,9-tetrahydro-5H-pyrimido[4,5-b][1,4]diazepin-2-yl)amino)-N-(2-(2-(2-(2-((2-(2,6-dioxopiperidin-3-yl)-1,3-dioxoisoindolin-4-yl)amino)ethoxy)ethoxy)ethoxy)ethyl)-5-methoxy-2-(4-methylpiperazin-1-yl)benzamide]"
5,+ (+<0.7),"COc1cc(N2CCC(CN3CCN(c4ccc5c(c4)C(=O)N(C4CCC(=O)NC4=O)C5=O)CC3)CC2)c(F)cc1Nc1ncc2c(n1)N(C1CCCC1)CC(F)(F)C(=O)N2C (centres unmarked) [Compound 111, 5-(4-((1-(4-((9-cyclopentyl-7,7-difluoro-5-methyl-6-oxo-6,7,8,9-tetrahydro-5H-pyrimido[4,5-b][1,4]diazepin-2-yl)amino)-2-fluoro-5-methoxyphenyl)piperidin-4-yl)methyl)piperazin-1-yl)-2-(2,6-dioxopiperidin-3-yl)isoindoline-1,3-dione]"
6,++ (++<0.6),"COc1cc(C(=O)N[C@H]2CC[C@H](N3CCN(CCOCCOc4cccc5c4CN(C4CCC(=O)NC4=O)C5=O)CC3)CC2)ccc1Nc1ncc2c(n1)N(C1CCCC1)CC(F)(F)C(=O)N2C (some centres unmarked) [Compound 198, 4-((9-cyclopentyl-7,7-difluoro-5-methyl-6-oxo-6,7,8,9-tetrahydro-5H-pyrimido[4,5-b][1,4]diazepin-2-yl)amino)-N-((1r,4r)-4-(4-(2-(2-((2-(2,6-dioxopiperidin-3-yl)-1-oxoisoindolin-4-yl)oxy)ethoxy)ethyl)piperazin-1-yl)cyclohexyl)-3-methoxybenzamide]"
